Data: US11878045B2, “Inducing cell death by hyperactivation of motility networks” (The Johns Hopkins University, priority 2016, dated 2024)
“Also recorded” adds a separate entry of the source.

Columns and labels:
wild type cells [1] = assay: Phenotypic screen of the Johns Hopkins drug library, wild-type counter-screen; format: cell-based, Dictyostelium; conditions: library screen hits
From the text: (§1) FIG. 7 is a diagram showing the process of drug library screen. […] Secondary screen confirmed nine compounds with effects selective for pten− but not wild-type cells.
(§2) The John Hopkins Drug Library contains 2560 drugs that are either FDA approved, have been proven in other countries for treating human diseases, or have entered phase II clinical trials. […] These compounds fell into several classes: certain phenothiazines (promazine, chlorpromazine, and thioridazine), certain antibiotics (polymyxin and chloroxine), certain statins (fluvastatin and pitavastatin), and others (benfluorex and phenazopyridine). All of the hits were validated independently with purchased compounds and repeating the experiments.

[2] = tested on: Dictyostelium pten− cells; assay: Phenotypic screen of the Johns Hopkins drug library on growth of pten− cells; format: cell-based; conditions: hits validated independently with purchased compounds
From the text: as §1, §2

[3] = tested on: Dictyostelium pten− cells; conditions: for cytotoxicity for Dictyostelium pten− cells: 5 μM statin, three day period (17, 41, 65 hours); for time after drug treatment at which cell death started to occur: pten− cells; for growth of pten− cells compared to DMSO control: three day period
Description: Cells were treated with 5 μM fluvastatin or DMSO. Images were taken 17 hours (left), 41 hours (middle), and 65 hours (right) after drug treatment.
Seven statins currently available on the market were tested for cytotoxicity on pten− cells. The graph quantifies growth of cells treated with 5 μM of statins or DMSO control over a three day period. Blue, orange, and yellow bars represent relative cell counts 17 hours, 41 hours, and 65 hours after drug treatment.
Statins are inhibitors of HMG-CoA reductase, the rate-controlling enzyme of the mevalonate pathway.

wild type cells [4] = assay: Statin growth test on wild type cells; format: cell-based, Dictyostelium
Description: Cells were treated with 5 μM fluvastatin or DMSO.

pten−/− cells = assay: Add-back experiments (MVA, GGPP, cholesterol) with pitavastatin; format: cell-based, human
[5] = tested on: MCF10-A harboring oncogenic PIK3CA mutations; assay: Growth of mammary epithelial cells with oncogenic PIK3CA mutations under compound treatment; format: cell-based, human; conditions: 5 μM
Description: (§3) To test whether the hits from the drug screen targeted human pre-metastatic cells, the growth of the human mammary epithelial cell lines MCF-10A, MCF-10A with homozygous pten deletion (pten−/−), or MCF10-A harboring oncogenic PIK3CA mutations under compound treatment were measured.

[6] = tested on: MCF-10A with homozygous pten deletion (pten−/−); assay: Growth of mammary epithelial cells with homozygous pten deletion under compound treatment; format: cell-based, human; conditions: 5 μM
Description: (§4) MCF-10A or pten−/− cells were treated with DMSO control or 5 μM pitavastatin. Upper and lower panels show 44 hours and 68 hours after drug treatment.
(§5) Cells were treated with DMSO control or 5 μM drugs. Blue, orange, and yellow bars represent 20 hours, 44 hours, and 68 hours after drug treatment.
as §3

MCF-10A cells = assay: Growth of parental mammary epithelial cells under compound treatment; format: cell-based, human; conditions: 5 μM
Description: as §4, §5, §3

Row | Compound | effect on morphology and growth of wild type cells (wild type cells [1]) | effect on growth or survival of pten− cells in the library screen [2] | cytotoxicity for Dictyostelium pten− cells [3] | further results
1 | polymyxin | little or no effect | selectively slow down the growth of or kill pten− cells | – | –
2 | CC(C)c1c(C(=O)Nc2ccccc2)c(-c2ccccc2)c(-c2ccc(F)cc2)n1CC[C@@H](O)C[C@@H](O)CC(=O)O [atorvastatin] | – | – | well tolerated | –
3 | Oc1c(Cl)cc(Cl)c2cccnc12 [chloroxine] | little or no effect | selectively slow down the growth of or kill pten− cells | – | –
4 | CC[C@H](C)C(=O)O[C@H]1C[C@H](O)C=C2C=C[C@H](C)[C@H](CC[C@@H](O)C[C@@H](O)CC(=O)O)[C@H]21 [pravastatin] | – | – | well tolerated | –
5 | CC[C@H](C)C(=O)O[C@H]1C[C@@H](C)C=C2C=C[C@H](C)[C@H](CC[C@@H]3C[C@@H](O)CC(=O)O3)[C@H]21 [lovastatin] | – | – | well tolerated | –
6 | CC(C)n1c(/C=C/C(O)CC(O)CC(=O)O)c(-c2ccc(F)cc2)c2ccccc21 (stereo not drawn) [fluvastatin] | little or no effect | selectively slow down the growth of or kill pten− cells | high cytotoxicity; also recorded: higher efficacy compared to all other statins | growth of wild type cells treated with the statins (wild type cells [4]): no significant growth defect; growth and survival of Dictyostelium pten− cells (FIG. 8) ([3]; 5 μM, images 17, 41 and 65 hours after treatment): selectively affected the growth and survival; time after drug treatment at which cell death started to occur [3]: around 40 hours; growth of pten− cells compared to DMSO control [3]: grew much slower
7 | CN(C)CCCN1c2ccccc2Sc2ccc(Cl)cc21 [chlorpromazine] | little or no effect | selectively slow down the growth of or kill pten− cells | – | –
8 | CC(C)c1nc(N(C)S(C)(=O)=O)nc(-c2ccc(F)cc2)c1/C=C/[C@@H](O)C[C@@H](O)CC(=O)O [rosuvastatin] | – | – | well tolerated | –
9 | O=C(O)C[C@H](O)C[C@H](O)/C=C/c1c(C2CC2)nc2ccccc2c1-c1ccc(F)cc1 [pitavastatin] | little or no effect | selectively slow down the growth of or kill pten− cells | high cytotoxicity; also recorded: higher efficacy compared to all other statins | growth of wild type cells treated with the statins (wild type cells [4]): no significant growth defect; effects of pitavastatin with supplementation of cholesterol (pten−/− cells): not cholesterol; effects of pitavastatin with supplementation of GGPP (pten−/− cells; increasing doses of pitavastatin, with or without GGPP): blocked the toxic effects; also recorded: completely blocked; effects of pitavastatin with supplementation of mevalonic acid (MVA) (pten−/− cells; increasing doses of pitavastatin, with or without MVA): blocked the toxic effects; also recorded: completely blocked; time after drug treatment at which cell death started to occur [3]: around 40 hours; growth of pten− cells compared to DMSO control [3]: grew much slower; cell death in PIK3CA knock-in cells [5]: extensive cell death; cell growth of PIK3CA knock-in cells [5]: marked reduction in cell growth; cell growth of MCF-10A pten−/− cells ([6]; 20, 44, 68 hours): selectively inhibited the growth and survival; also recorded: marked reduction in cell growth; cell death in MCF-10A pten−/− cells ([6]; 44 and 68 hours): cell death induced; also recorded: extensive cell death; reduction in cell growth and cell death in parental MCF-10A cells (MCF-10A cells): not MCF-10A cells
10 | CN(C)CCCN1c2ccccc2Sc2ccccc21 [promazine] | little or no effect | selectively slow down the growth of or kill pten− cells | – | –
11 | CSc1ccc2c(c1)N(CCC1CCCCN1C)c1ccccc1S2 (stereo not drawn) [thioridazine] | little or no effect | selectively slow down the growth of or kill pten− cells | – | –
12 | CC(Cc1cccc(C(F)(F)F)c1)NCCOC(=O)c1ccccc1 (stereo not drawn) [benfluorex] | little or no effect | selectively slow down the growth of or kill pten− cells | – | –
13 | Nc1ccc(/N=N/c2ccccc2)c(N)n1 [phenazopyridine] | little or no effect | selectively slow down the growth of or kill pten− cells | – | –
